Test results as given in PubChem BioAssay (NCI).
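Protocol summary: plate cells (96-well), add compound at 5 concentrations, incubate 48 h, interpolate endpoints linearly. TGI: total growth inhibition.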

Columns and labels:
Experiment in all cases: NCI-60 cell line screen, 48 h
[1] = test system: UACC-257 melanoma
[2] = test system: KM12 colon
[3] = test system: SN12C renal
[4] = test system: NCI/ADR-RES ovarian
[5] = test system: UACC-62 melanoma
[6] = test system: OVCAR-4 ovarian
[7] = test system: M14 melanoma
[8] = test system: MDA-MB-231 breast
[9] = test system: SK-MEL-28 melanoma
[10] = test system: SF-268 CNS
[11] = test system: BT-549 breast
[12] = test system: PC-3 prostate
[13] = test system: HOP-62 NSCLC
[14] = test system: A549 NSCLC
[15] = test system: SK-MEL-5 melanoma
[16] = test system: CAKI-1 renal
[17] = test system: SK-OV-3 ovarian

SMILES	TGI [1] [µM]	TGI [2] [µM]	TGI [3] [µM]	TGI [4] [µM]	TGI [5] [µM]	TGI [6] [µM]	TGI [7] [µM]	TGI [8] [µM]	TGI [9] [µM]	TGI [10] [µM]	TGI [11] [µM]	TGI [12] [µM]	TGI [13] [µM]	TGI [14] [µM]	TGI [15] [µM]	TGI [16] [µM]	TGI [17] [µM]
C[C@H]1CCCCC[C@@H]2CC(=O)CC2C(=O)CCC(=O)O1 (stereo partly specified)	> 100	> 100	> 100	> 100	> 100	> 100	> 100	> 100	> 100	> 100	> 100	> 100	> 100	> 100	> 100	–	–
COCOCC1CCCN1CN1CCC[C@H]1COCOC (stereo partly specified)	> 100	> 100	> 100	> 100	> 100	> 100	> 100	> 100	> 100	> 100	–	> 100	> 100	> 100	> 100	> 100	> 100
COc1c(C)c(C/C=C(\C)CCCCO)c(OC)c(OC)c1OC	> 100	41.5	> 100	> 100	> 100	> 100	> 100	> 100	–	> 100	> 100	> 100	> 100	69.6	> 100	–	> 100
CCOC(=O)[C@H]1Nc2ccc(Cl)cc2[C@H]2OCC[C@@H]12	> 100	> 100	> 100	–	> 100	> 100	> 100	–	> 100	> 100	–	–	> 100	> 100	> 100	> 100	> 100
O=C(Cc1ccccc1)NNc1nc(NNC(=O)c2ccncc2)nc(Nc2ccccc2)n1	> 10	> 10	> 10	> 10	> 10	> 10	> 10	> 10	> 10	> 10	> 10	–	> 10	–	–	> 10	> 10
CCCc1c(C(=O)OCC)[nH]c(-c2ccc(-c3[nH]c(C(=O)OCC)c(CCC)c3C(=O)OCC)o2)c1C(=O)OCC	> 100	> 100	> 100	–	> 100	> 100	> 100	–	> 100	> 100	–	–	–	> 100	> 100	> 100	> 100
CC(C)c1c(O[Si](C(C)C)(C(C)C)C(C)C)c2c3c(ccc4c3c1OC4(C)C)C(C)CC2 (stereo unspecified)	> 100	> 100	> 100	> 100	> 100	> 100	> 100	> 100	> 100	> 100	–	> 100	> 100	> 100	> 100	> 100	> 100
CC(C)C1SCc2nc3ccccc3n21 (stereo unspecified)	> 100	45.5	> 100	> 100	> 100	> 100	> 100	78.2	> 100	> 100	–	71.2	> 100	> 100	31	> 100	> 100
O=C1Oc2ccccc2C(=O)/C1=C/N1C(=O)N/C(=C\c2cccc(O)c2)C1=O	> 100	> 100	> 100	> 100	–	> 100	> 100	> 100	> 100	–	73.2	> 100	> 100	> 100	> 100	> 100	> 100
CC(C)Oc1ccc(CNC2=NCCO2)c2ccccc12	20	34	32.2	31.9	30.6	31.1	24.4	28.9	27.6	45.7	–	–	30.8	30.8	26.3	–	30.9
CC1(Br)C(=O)NC(=O)N(C2CC(N=[N+]=[N-])C(CO)O2)C1N=[N+]=[N-] (stereo unspecified)	> 100	> 100	> 100	–	> 100	> 100	> 100	–	> 100	> 100	–	–	> 100	> 100	> 100	> 100	> 100
C/C1=C\[C@H](C)C[C@H](C)OC(=O)C[C@H](c2ccc(O)cc2)NC(=O)[C@H](Cc2ccc(O)c(Br)c2)N(C)C(=O)[C@H](C)NC(=O)[C@@H](C)C1	–	> 25	> 25	> 25	> 25	> 25	> 25	> 25	> 25	> 25	–	> 25	> 25	> 25	> 25	–	> 25
CC(C)[Si](OC1=C(C(=O)N(C)c2ccccc2Cl)CCCC1)(C(C)C)C(C)C	24.1	27.5	–	29.6	34	28.9	30.2	31.3	37.4	29.2	–	24.4	34.6	14.3	27.5	27.3	28.5
c1ccc(N=c2sc3ccccc3sc2=Nc2ccccc2)cc1	12.7	4.25	3.15	7.03	2.66	3.68	–	3.67	3.4	10.2	–	25.5	15.3	9.1	5.14	4.59	11.8
Cc1ccc2c(c1)SC(c1cc3c(cc1Br)OCO3)S2 (stereo unspecified)	> 31.6	> 31.6	> 31.6	–	> 31.6	> 31.6	> 31.6	–	> 31.6	> 31.6	–	–	> 31.6	> 31.6	> 31.6	> 100	> 31.6
